Source: patent US20230257771A1, “AAV DELIVERY SYSTEM FOR LUNG CANCER TREATMENT” (Christiana Care Health Services, Inc., priority 2020, published 2023)
Entries after “also recorded” stand apart in the source; their conditions may differ.

How the values were obtained:
wild type A549 cells = experiment: MTS cell proliferation assay after drug exposure, wild type A549; assay type: cell-based, human; conditions: 72 hours
Experimental: (§1) Cell viability was evaluated using the CellTiter 96 Aqueous Non-Radioactive Cell Proliferation Assay (Promega, Madison, WI). A549 cell lines were plated at 2×10^3 cells per well and allowed to culture for 24 hours. The cell media was then aspirated, the cells washed with PBS, then exposed to the MTS reagent for 3 hours. After 3 hours of MTS bio-reduction by proliferating cells, the formazan product’s absorbance was measured using a 450 nm filter on an Infinite 2000 PRO microplate reader (Tecan, Mannadorf, Switzerland). Cell viability after drug exposure was evaluated using the CellTiter 96 Aqueous Non-Radioactive Cell Proliferation Assay. A549 cell lines were plated at 2×10^3 cells per well and allowed to culture for 24 hours. The cells were then treated with cisplatin, carboplatin, or a combination of cisplatin and vinorelbine for three days. The cell media was then aspirated, the cells washed with PBS, then exposed to the MTS reagent for 3 hours. After 3 hours of MTS bio-reduction by proliferating cells, the formazan product’s absorbance was measured using a 450 nm filter on an Infinite 2000 PRO microplate reader.

[1] = test system: 2-11 A549 cells (NRF2 knockout); experiment: MTS cell proliferation assay after drug exposure, NRF2 knockout A549 (2-11); assay type: cell-based, human; conditions: 72 hours; for chemosensitivity (MTS): increasing dosages of single drug
Experimental: as §1

wild type A549 tumors = experiment: Xenograft mouse model, wild type A549 tumors; assay type: in vivo
Experimental: The animal trials presented herein were carried out at Washington Biotech Inc., Simpsonville Maryland, under animal use and care protocol (SOP 505, SOP 520, SOP 522, SOP 1610, SOP1650) approved by the animal care and use committee of Washington Biotechnology Inc. (AAALAC accredited Animal Welfare Assurance number A4192-01). The human xenograft model was established using methodology reported previously. Kellar et al., Biomed Res. Int. 2015, 1-17 (2015). Female athymic nude mice (Envigo, 5-6 weeks old) were used in this study. Approximately 5 × 10^6 cells (wild type A549 or homozygous knockout (clonal expansion 2-11)) suspended in PBS with 20% Matrigel were injected subcutaneously into right flank of each mouse. Tumor volume was measured three times a week with a digital caliper once palpable, and calculated using the formula, tumor size = ab^2/2, where ‘a’ is the larger and ‘b’ is the smaller of the two dimensions. When tumors grew up to a mean volume of around 100 mm^3, A549 tumor bearing mice or A549-2-11 tumor bearing mice were randomly divided into 7 groups (N=5 for each group) respectively and subject to dose/regimen-finding study. […] Tumor volume and body weight was closely monitored over time. […] The data were expressed as mean ± SD. […]

[2] = test system: NRF2 knockout A549 (2-11) tumors; experiment: Xenograft mouse model, NRF2 knockout A549 (2-11) tumors; assay type: in vivo
Experimental: The animal trials presented herein were carried out at Washington Biotech Inc., Simpsonville Maryland, under animal use and care protocol (SOP 505, SOP 520, SOP 522, SOP 1610, SOP1650) approved by the animal care and use committee of Washington Biotechnology Inc. (AAALAC accredited Animal Welfare Assurance number A4192-01). The human xenograft model was established using methodology reported previously. Kellar et al., Biomed Res. Int. 2015, 1-17 (2015). Female athymic nude mice (Envigo, 5-6 weeks old) were used in this study. Approximately 5 × 10^6 cells (wild type A549 or homozygous knockout (clonal expansion 2-11)) suspended in PBS with 20% Matrigel were injected subcutaneously into right flank of each mouse. Tumor volume was measured three times a week with a digital caliper once palpable, and calculated using the formula, tumor size = ab^2/2, where ‘a’ is the larger and ‘b’ is the smaller of the two dimensions. When tumors grew up to a mean volume of around 100 mm^3, A549 tumor bearing mice or A549-2-11 tumor bearing mice were randomly divided into 7 groups (N=5 for each group) respectively and subject to dose/regimen-finding study. They were treated with tail vein injection of (1) Cisplatin (2 mg/kg), (2) Carboplatin (25 mg/kg), (3) Cisplatin (5 mg/kg) and Vinorelbine (5 mg/kg) or (4) saline on day 0, 3, 6 and 9 (day 0 is designated as the day of dose started) (Sanjana et al., 2014, Nature Methods 11(8); 783-784). Tumor volume and body weight was closely monitored over time. After 16 days, the animals were sacrificed, with tumor removed, weighed and processed for molecular analysis. Mice were euthanized. The data were expressed as mean ± SD. Student’s t-test and one-way or two-way ANOVA was used to assess the significance of difference. A P value < 0.05 was considered significant.
A549 xenografts were resected on day 16, snap frozen in liquid nitrogen and stored in -80° C. until usage. All immunofluorescence staining was performed as previously described. Wang et al., Investig. Opthalmology Vis. Sci. 58, 3896 (2017). Briefly, tumors were embedded in Optimum Cutting Temperature (Tissue Tek, Torrance, CA, USA) and 16-µm-thick sections were obtained with a Leica CM3050 cryostat (Leica Microsystems, Buffalo Grove, IL, USA), and mounted on slides. Slides were fixed and incubated with blocking buffer for 1 hour at room temperature. Sections were then incubated with primary antibody (refer to Table 3 for more details), then washed in PBS and incubated with Alexa Fluor 488 labeled secondary antibody (1:200 dilution; Invitrogen, Grand Island, NY, USA) for 1 hour at RT. Sections were washed in PBS, then mounted with SlowFade Gold antifade mountant with DAPI (Invitrogen, Carlsbad, CA, USA). […]

A549 Clone 1-17 cells = experiment: MTS assay, A549 Neh2 KO Clone 1-17 treated with cisplatin; assay type: cell-based, human; conditions: cisplatin 1, 2, 3, 5, 10 uM, compared to wildtype A549
Description: (§2) The lung adenocarcinoma-derived cell line, A549, was used transfected with CRISPR/Cas9 designed to target exon 2 of NRF2 to create individual clones with random indel patterns. A total of three clones, 1-17, 2-16, and 2-23, were isolated and expanded. All three clones were collected for genomic DNA isolation and sanger sequencing to confirm the indels present. The DECODR program was used to deconvolute the sanger sequencing of each clone. The A549 cell line is polyploid and therefore, these clones contain 3 alleles of the NRF2 gene. Clone 1-17 contains -2, -2, -13 base pair deletions. Clone 2-16 contains a -1 base pair deletion across all alleles. Clone 2-23 contains two wildtype alleles and a -2 base pair deletion. A cell proliferation assay was used to assess the functionality of NRF2 after CRISPR targeting in combination with cisplatin treatment. The MTS assay was used to measure cellular proliferation of A549 wildtype, Clone 1-17, 2-16, and 2-23 cells. Cells were plated at the same concentration in each well and allowed to recover for 24 hours. […] Absorbance values for each clone and concentration were normalized by dividing the absorbance by the absorbance of each control well (0 µM). Normalized values for each clone at each concentration were then averaged across and standard error of the mean was calculated. […]

A549 Clone 2-16 cells = experiment: MTS assay, A549 Neh2 KO Clone 2-16 treated with cisplatin; assay type: cell-based, human; conditions: cisplatin 1, 2, 3, 5, 10 uM, compared to wildtype A549
Description: as §2

A549 Clone 2-23 cells = experiment: MTS assay, A549 Neh2 KO Clone 2-23 treated with cisplatin; assay type: cell-based, human; conditions: cisplatin 1, 2, 3, 5, 10 uM, compared to wildtype A549
Description: as §2

[3] = increasing cisplatin with Vinorelbine at 5 µM
[4] = increasing dosages of cisplatin
[5] = 5 mg/kg cisplatin and 5 mg/kg vinorelbine in combination
[6] = cisplatin 2 mg/kg, tumors harvested day 16

Row | SMILES | cisplatin dosage above which elevated sensitivity is shown (wild type A549 cells; [3]) | dose dependence of cell proliferation (MTS) (wild type A549 cells; [4]) | resistance to drug (MTS proliferation) (wild type A549 cells; [4]) | concentrations with loss of proliferation ([1]; cisplatin) | chemosensitivity (MTS), combination [1, 3] | chemosensitivity (MTS) [1] | tumor growth over 16 days (wild type A549 tumors; [5]) | size of extracted tumors (wild type A549 tumors; [6]) | tumor growth over 16 days [2, 5] | tumor growth over 16 days ([2]; cisplatin 2 mg/kg tail vein, day 0, 3, 6, 9) | size of extracted tumors [2, 6] | sensitivity to cisplatin (MTS) (A549 Clone 1-17 cells) | sensitivity to cisplatin (MTS) (A549 Clone 2-16 cells) | sensitivity to cisplatin (MTS) (A549 Clone 2-23 cells) | chemosensitivity (MTS) ([1]; listed as Carboplatin) | tumor growth over 16 days ([2]; 25 mg/kg carboplatin tail vein)
1 | N.N.[Cl][Pt][Cl] [cisplatin] | > 5 µM | slight increase in cell proliferation up to 3 µM of cisplatin before proliferation is adversely affected at final concentrations of 5 µM and 10 µM | resistant to high dosages | ≥ 1 µM | increased sensitivity; also recorded: a heightened sensitivity is also observed | heightened sensitivity | more sensitive to this combination of drugs | proliferate aggressively | cessation of tumor growth and maintenance of tumor size; also recorded: reduction in tumor proliferation | proliferation of the implanted cells is arrested; also recorded: reduction in tumor proliferation | smallest tumors | relatively the same trend of sensitivity | relatively the same trend of sensitivity | even higher resistance than the wildtype cells | – | –
2 | N.N.O=C([O-])C1(C(=O)[O-])CCC1.[Pt+2] [carboplatin] | – | – | – | – | – | – | – | – | – | – | – | – | – | – | the cell killing response reflected what was observed in the experiments using cisplatin | reduction in tumor proliferation
